IC50 data for 39 molecules are collected here from ChEMBL document CHEMBL5104094, “Chemistry, biosynthesis and biological activity of terpenoids and meroterpenoids in bacteria and fungi isolated from different marine habitats” (Eur J Med Chem, 2021).

SMILES strings stand for the structures.

The first assay relates to HCT-116. Briefly: Cytotoxicity against human HCT-116 cells assessed as cell growth inhibition. Format: functional, cell-based.
Usually IC50 stands for the concentration that inhibits the measured activity by half. Regarding `C=C[C@]1(C)C=C2C(=O)C(O)=C3[C@](C)(CO)CC[C@@H](O)[C@]3(C)[C@@]2(O)CC1`, the IC50 came out at 53 µM. For `C=C[C@]1(C)C=C2C(=O)C(O)=C3C(C)(C)CC[C@@H](O)[C@]3(C)[C@@]2(O)CC1`, the IC50 was determined as 15 µM. Same read-out and setting: in the case of `COC(=O)c1c(C)cc2c(c(C)c1=O)O[C@@]1(C)CC[C@H]3C(C)(C)OC(=O)C=C[C@]3(C)[C@@H]1C2` it was 13.9 µM; in that of `C=C[C@]1(C)C=C2C(=O)C(O)=C3[C@](C)(CO)CC=C[C@]3(C)[C@@]2(O)CC1`, 15 µM; in that of `COC(=O)c1c(C)cc2c(c(C)c1=O)O[C@@]1(C)CC[C@H]3C(C)(C)OC(=O)C[C@@H](OC(C)=O)[C@]3(C)[C@@H]1C2`, 10.9 µM. For the molecule `COC(=O)c1c(C)cc2c(c(C)c1=O)O[C@@]1(C)CC[C@H]3C(C)(C)OC(=O)C[C@@H](O)[C@]3(C)[C@@H]1C2`, the IC50 came to 13.2 µM.

For the next assay, the system named is HL-60. As to the kind of experiment: Inhibition of cell adhesion of human HL-60 cells to human LPS-stimulated HUVEC cells incubated for 4 hrs with HUVEC cells followed by MTT-labeled HL-60 cells addition measured after 40 mins by absorbance based microplate reader analysis. Format: functional.
The molecule `C=C1COC(OC)[C@@]12C[C@H]1C[C@H](O)C[C@H](C)[C@@]1(C)C2` (some centres undefined) returned an IC50 of 11.5 µM. As to `C=C(CO)[C@]1(O)[C@@H](O)[C@@]2(C)[C@H](CCC[C@@H]2C)C[C@@H]1O`, inhibition was half-maximal at 20.7 µM (IC50). For `C=C(CO)[C@@]1(O)[C@@H](O)[C@@]2(C)[C@H](CCC[C@@H]2C)C[C@@H]1O`, half-maximal inhibition (IC50) was put at 15.6 µM.

For another assay, the target named is Platelet-activating factor receptor (Homo sapiens, UniProt P25105). Briefly: Antagonist activity at PAFR (unknown origin). It counts as functional.
Sequence of Platelet-activating factor receptor (P25105 whole entry): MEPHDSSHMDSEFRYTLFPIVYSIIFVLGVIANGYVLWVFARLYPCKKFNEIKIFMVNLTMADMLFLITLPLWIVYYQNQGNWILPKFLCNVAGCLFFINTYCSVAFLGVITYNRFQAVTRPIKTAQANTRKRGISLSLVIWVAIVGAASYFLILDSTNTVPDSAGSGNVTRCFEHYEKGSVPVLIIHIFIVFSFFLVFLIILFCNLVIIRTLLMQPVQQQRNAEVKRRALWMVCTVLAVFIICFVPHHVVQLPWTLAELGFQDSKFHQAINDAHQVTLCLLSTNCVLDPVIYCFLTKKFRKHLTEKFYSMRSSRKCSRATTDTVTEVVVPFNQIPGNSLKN
For `C[C@@H]1CC=C2C(=O)[C@H]3O[C@]3(C)CC[C@@H]3O[C@@]3(C)CC[C@@]1(C)[C@@]2(C)O`, inhibition was half-maximal at 2.8 µM (IC50).

As for `C/C1=C\CC[C@]2(C)O[C@@H]3C[C@@H](C)[C@@](C)(CC1)C1=C3[C@](O)(OC1)[C@H]2O`, it took 2.8 µM to reach half-maximal inhibition (IC50). `C=C1C2=CC[C@@H](C)[C@@]1(C)CC/C(C)=C/CC[C@H]1O[C@@H]1C2=O` gave an IC50 of 2.5 µM. Regarding `C=C1C2=CC[C@@H](C)[C@]1(C)CC[C@]1(C)O[C@H]1CC[C@@]1(C)O[C@@H]1C2=O`, the IC50 worked out at 2.8 µM. `C/C1=C\CC[C@@H]2O[C@H]2C(=O)C2=CC[C@@H](C)[C@@](C)(C[C@@H]1O)[C@@H]2C` gave an IC50 of 2.8 µM. On the same count and under the same terms, in the case of `C[C@@H]1[C@@H](O)C=C2C(=O)[C@H]3O[C@@]3(C)CCC[C@H]3O[C@@]3(C)C[C@]1(C)[C@@]2(C)O` it was 2.8 µM; in that of `C[C@@H]1CC=C2C(=O)[C@H]3O[C@]3(C)CC[C@@H]3O[C@@]3(C)CC[C@@]1(C)[C@@H]2C`, 2.8 µM.

The test system of a further assay is MCF7. As to the kind of experiment: Cytotoxicity against human MCF7 cells assessed as cell growth inhibition by MTT assay. Format: functional, cell-based. Background: Tetrazolium dyes change colour on reduction, which living cells bring about.
With `C=C[C@]1(C)C=C2C(=O)C(O)=C3C(C)(C)[C@@H](O)CC[C@]3(C)[C@@]2(O)[C@H](O)C1`, the concentration for half-maximal inhibition (IC50) is > 70 µM. Turning to `C=C[C@@]1(C)CCC2=C([C@H](O)C(=O)[C@@]3(O)C(C)(C)CCC[C@]23C)[C@H]1O`, the IC50 is > 70 µM.

With `C=C[C@@]1(C)CCC2=C([C@H]1O)[C@H](O)[C@]1(O)OC[C@@]23CCCC(C)(C)[C@@]31O`, the IC50 was > 70 µM. On to `C=C[C@]1(C)C=C2C(=O)C(O)=C3C(C)(C)CCC[C@]3(C)[C@@]2(O)CC1`, for which the IC50 was 35.9 µM. As to `C=C[C@]1(C)C=C2C(=O)C(O)=C3C(C)(C)[C@@H](O)CC[C@]3(C)[C@@]2(O)CC1`, the IC50 came to 25.6 µM.

In a further assay the test system is Panel NCI-60 (60 carcinoma cell lines). Briefly: Cytotoxicity against human Panel NCI-60 (60 carcinoma cell lines) assessed as cell growth inhibition. It counts as functional, cell-based.
`C[C@H]1CC[C@@]23C1=C[C@@]1(C)CC[C@](C)(C[C@H](O)C(=O)[C@@](C)(O)CO)[C@H]1[C@@H]2CC[C@@H]3C`: the IC50 was 18 µM. For the molecule `C[C@H]1CC[C@@]23C1=C[C@@]1(C)CC[C@](C)(C[C@H](O)[C@H](O)[C@@](C)(O)CO)[C@H]1[C@@H]2CC[C@@H]3C`, the IC50 came to 18 µM. With `C[C@H]1CC[C@@]23C1=C[C@@]1(C)CC[C@](C)(C[C@H](O)[C@H](O)[C@@](C)(O)CO)[C@H]1[C@@H]2C[C@@H](O)[C@@H]3C`, the IC50 worked out at 18 µM. For the molecule `C[C@H]1C[C@@H](O)[C@@]23C1=C[C@@]1(C)CC[C@](C)(C[C@H](O)[C@H](O)C(C)(C)O)[C@H]1[C@@H]2CC[C@@H]3C`, the IC50 came to 18 µM. On to `C[C@H]1C[C@@H](O)[C@@]23C1=C[C@@]1(C)CC[C@](C)(C[C@H](O)[C@H](O)[C@@](C)(O)CO)[C@H]1[C@@H]2CC[C@@H]3C`, for which the IC50 is 18 µM. In the case of `C[C@H]1CC[C@@]23C1=C[C@@]1(C)CC[C@](C)(C[C@H](O)[C@H](O)C(C)(C)O)[C@H]1[C@@H]2CC[C@@H]3C`, the half-maximal inhibitory concentration (IC50) amounted to 18 µM. Consider `C[C@H]1CC[C@@]23C1=C[C@@]1(C)CC[C@](C)(C[C@H](O)[C@H](O)C4(C)CO4)[C@H]1[C@@H]2CC[C@@H]3C` (some centres undefined), for which the IC50 was 18 µM.

Test system in another assay: not listed separately
Briefly: Inhibition of Influenza virus neuraminidase. Also noted: species or system unidentified influenza virus.
For `C=C1[C@@]2(CCC(=O)OC2(C)C)C[C@H](OC(=O)/C(C)=C/C)[C@@]2(C)[C@]34C(=C)[C@@]5(C)OC(=O)[C@@]3(O[C@@]12[C@H]5OC(C)=O)[C@H](C)OC4=O`, the midpoint of inhibition, the IC50, lay at 1.37 µM. The same measure, in the same setting: next, `C=C1[C@]23C(=O)O[C@@H](C)[C@@]2(O)C(=O)O[C@@]1(C)[C@H](OC(C)=O)C1=C(C)[C@@]2(C=CC(=O)OC2(C)C)CC[C@]13C`: 1.37 µM; `C=C1C23O[C@@]45C(=O)O[C@](C)(C(=C)[C@@]4(C(=O)O[C@H]5C)[C@]2(C)[C@@H](OC(=O)c2ccccc2)C[C@]12CCC(=O)OC2(C)C)[C@@H]3OC(C)=O`: 1.37 µM; `C=C1[C@]23C(=O)O[C@@H](C)[C@@]2(O)C(=O)O[C@@]1(C)[C@H](O)C1=C(C)[C@@]2(C=CC(=O)OC2(C)C)CC[C@]13C`: 1.37 µM. Turning to `C=C1[C@@]2(CCC(=O)OC2(C)C)C[C@H](OC(=O)c2ccccc2)[C@@]2(C)[C@@]34C(=O)O[C@@H](C)[C@@]35O[C@@]12[C@@H](OC(C)=O)[C@](C)(OC5=O)C4=O`, the midpoint of inhibition, the IC50, lay at 1.37 µM. Turning to `CCOC(=O)C1=C[C@@H](OC(CC)CC)[C@H](NC(C)=O)[C@@H](N)C1` [OSELTAMIVIR], the IC50 is 0.99 µM. Regarding `C=C1[C@@]2(CCC(=O)OC2(C)C)CC[C@@]2(C)[C@]34C(=C)[C@@]5(C)OC(=O)[C@@]3(O[C@@]12[C@H]5O)[C@H](C)OC4=O`, it took 1.37 µM to reach half-maximal inhibition (IC50).

In the next assay the test system is RAW264.7. Briefly: Antiinflammatory activity in LPS-stimulated mouse RAW264.7 cells assessed as inhibition of NO production incubated for 2 hrs followed by LPS stimulation measured after 48 hrs […]. It counts as functional, cell-based.
On to `C=C1[C@@H](OC(C)=O)[C@@H]2[C@](C)(C(=O)C(O)=C3C(C)(C)C(=O)C=C[C@]32C)[C@]2(C(=O)OC)C(=O)[C@@H](C)OC(=O)[C@]12C`, for which the IC50 was 13.4 µM. Still for that read-out and setting: in the case of `C=C1[C@@H](OC(C)=O)[C@H]2[C@]3(C)[C@H]4CC(=O)C(C)(C)[C@]43C(=O)[C@]3(O)OC4=C(C)OC(=O)[C@@]1(C)[C@]4(C(=O)OC)[C@]23C` it was 13.4 µM. For `C=C1[C@@H](OC(C)=O)[C@@H]2[C@](C)(C(=O)C(O)=C3C(C)(C)C(=O)CC[C@]32C)[C@]2(C(=O)OC)C(=O)[C@@H](C)OC(=O)[C@]12C`, the IC50 turned out to be 13.4 µM. Take `COc1ccc2c(c1)c(CC(=O)O)c(C)n2C(=O)c1ccc(Cl)cc1` [INDOMETHACIN]: the 50% inhibitory concentration (IC50) was 24 µM.
